Experimental data published in US12065436B2, “Cardiac sarcomere inhibitors” (Cytokinetics, Inc., priority 2018, dated 2024).

Biological target: bovine cardiac myofibrils (full-length cardiac myosin ATPase in the native sarcomere) (Bos taurus (Bovine), UniProt Q9BE39)
Test: Skinned bovine cardiac myofibril ATPase assay (PK/LDH-coupled)
Assay type: biochemical
Conditions: Ca2+ activating to 75% of maximal rate; for CDMF75 IC15: concentration giving 15% inhibition; for IC50: read-out: CDMF75 IC50
In short: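 Inhibition of steady-state ATPase read at 340 nm through a PK/LDH-coupled NADH system (0.5 mM NADH, 1.5 mM PEP). Detergent-skinned bovine cardiac myofibrils, 1 mg/mL, were tested at pH 6.8 in PIPES/MgCl2 with 50 μM ATP and calcium adjusted to give pCa50 or pCa75 activation.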

bovine cardiac myofibrils (full-length cardiac myosin ATPase in the native sarcomere), sequence (Q9BE39 whole entry): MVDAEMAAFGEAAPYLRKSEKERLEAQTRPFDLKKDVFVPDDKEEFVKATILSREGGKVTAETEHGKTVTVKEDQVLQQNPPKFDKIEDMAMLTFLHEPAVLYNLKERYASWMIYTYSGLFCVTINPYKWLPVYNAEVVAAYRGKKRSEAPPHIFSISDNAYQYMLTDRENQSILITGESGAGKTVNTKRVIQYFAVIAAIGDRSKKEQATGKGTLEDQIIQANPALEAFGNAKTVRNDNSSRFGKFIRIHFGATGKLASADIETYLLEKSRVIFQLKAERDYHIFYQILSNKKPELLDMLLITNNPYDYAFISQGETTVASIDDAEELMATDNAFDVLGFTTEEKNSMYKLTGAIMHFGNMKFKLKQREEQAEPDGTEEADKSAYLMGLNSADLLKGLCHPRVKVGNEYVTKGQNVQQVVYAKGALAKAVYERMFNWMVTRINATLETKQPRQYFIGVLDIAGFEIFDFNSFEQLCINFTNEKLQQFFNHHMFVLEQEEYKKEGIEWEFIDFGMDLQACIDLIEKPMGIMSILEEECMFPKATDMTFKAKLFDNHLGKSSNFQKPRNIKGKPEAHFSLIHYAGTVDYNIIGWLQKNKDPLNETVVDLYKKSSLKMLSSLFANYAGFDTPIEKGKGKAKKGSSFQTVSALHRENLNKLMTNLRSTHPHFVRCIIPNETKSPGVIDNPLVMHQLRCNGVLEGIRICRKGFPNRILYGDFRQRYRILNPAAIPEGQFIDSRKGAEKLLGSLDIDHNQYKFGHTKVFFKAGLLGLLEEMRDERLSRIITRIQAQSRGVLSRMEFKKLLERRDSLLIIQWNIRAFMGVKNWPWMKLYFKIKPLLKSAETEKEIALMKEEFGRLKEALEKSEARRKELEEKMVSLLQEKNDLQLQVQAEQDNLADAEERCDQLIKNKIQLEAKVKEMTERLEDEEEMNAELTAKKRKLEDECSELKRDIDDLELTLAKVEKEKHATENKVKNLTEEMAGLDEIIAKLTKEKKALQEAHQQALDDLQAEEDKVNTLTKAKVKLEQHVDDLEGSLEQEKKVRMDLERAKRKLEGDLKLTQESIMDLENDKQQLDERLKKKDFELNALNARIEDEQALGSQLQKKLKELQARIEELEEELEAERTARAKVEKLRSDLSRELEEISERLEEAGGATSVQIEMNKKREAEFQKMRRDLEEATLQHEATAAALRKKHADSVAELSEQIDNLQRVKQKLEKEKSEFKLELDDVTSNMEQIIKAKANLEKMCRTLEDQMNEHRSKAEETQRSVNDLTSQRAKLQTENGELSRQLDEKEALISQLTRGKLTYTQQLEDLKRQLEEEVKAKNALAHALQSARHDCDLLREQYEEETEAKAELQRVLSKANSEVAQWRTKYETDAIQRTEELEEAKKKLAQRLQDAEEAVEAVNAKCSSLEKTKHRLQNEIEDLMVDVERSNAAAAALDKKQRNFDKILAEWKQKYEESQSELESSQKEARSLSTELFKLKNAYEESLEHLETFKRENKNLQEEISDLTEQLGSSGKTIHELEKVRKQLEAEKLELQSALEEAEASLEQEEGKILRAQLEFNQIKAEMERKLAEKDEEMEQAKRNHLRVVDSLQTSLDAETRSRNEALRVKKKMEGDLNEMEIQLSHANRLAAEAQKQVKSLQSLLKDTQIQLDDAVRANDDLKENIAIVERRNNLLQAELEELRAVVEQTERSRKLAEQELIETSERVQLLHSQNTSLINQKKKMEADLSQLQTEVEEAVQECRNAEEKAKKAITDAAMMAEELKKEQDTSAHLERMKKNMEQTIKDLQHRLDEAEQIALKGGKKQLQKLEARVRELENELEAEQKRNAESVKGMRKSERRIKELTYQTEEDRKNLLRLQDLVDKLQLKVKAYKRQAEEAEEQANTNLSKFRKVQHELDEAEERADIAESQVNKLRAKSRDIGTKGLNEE
bovine cardiac myofibrils (full-length cardiac myosin ATPase in the native sarcomere), sequence (P85100 whole entry partner): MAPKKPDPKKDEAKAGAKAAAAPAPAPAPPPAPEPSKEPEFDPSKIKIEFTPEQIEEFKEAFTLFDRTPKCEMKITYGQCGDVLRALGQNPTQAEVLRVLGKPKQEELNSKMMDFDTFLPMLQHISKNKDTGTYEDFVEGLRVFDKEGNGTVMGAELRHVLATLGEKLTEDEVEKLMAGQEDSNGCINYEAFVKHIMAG
bovine cardiac myofibrils (full-length cardiac myosin ATPase in the native sarcomere), sequence (Q3SZE5 whole entry partner): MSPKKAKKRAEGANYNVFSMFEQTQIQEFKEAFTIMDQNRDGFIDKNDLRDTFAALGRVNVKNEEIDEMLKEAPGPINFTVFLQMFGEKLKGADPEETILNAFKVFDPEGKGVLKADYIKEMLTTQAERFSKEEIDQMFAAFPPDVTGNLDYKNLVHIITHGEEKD

SMILES	CDMF75 IC15 [µM]	IC50 [µM]
CCc1nc(-c2ccc3c(c2)CC[C@H]3NC(=O)c2cc(C(C)=O)ccn2)no1 [Compound 720, (R)-4-acetyl-N-(5-(5-ethyl-1,2,4-oxadiazol-3-yl)-2,3-dihydro-1H-inden-1-yl)picolinamide]	2.3	10.4
CCc1nc(-c2ccc3c(c2)CC[C@H]3NC(=O)c2cc(C(C)O)ccn2)no1 (stereo partly drawn) [Compound 721, N-((R)-5-(5-ethyl-1,2,4-oxadiazol-3-yl)-2,3-dihydro-1H-inden-1-yl)-4-(1-hydroxyethyl)picolinamide]	1.5	6.7
CCc1nc(-c2ccc3c(c2)CC[C@H]3NC(=O)N2CC[C@H](O)C2)no1 [Compound 723, (S)-N-((R)-5-(5-ethyl-1,2,4-oxadiazol-3-yl)-2,3-dihydro-1H-inden-1-yl)-3-hydroxypyrrolidine-1-carboxamide]	4.4	20.3
CCc1nc(-c2ccc3c(c2)CC[C@H]3NC(=O)N2CC[C@@H](O)C2)no1 [Compound 724, (R)-N-((R)-5-(5-ethyl-1,2,4-oxadiazol-3-yl)-2,3-dihydro-1H-inden-1-yl)-3-hydroxypyrrolidine-1-carboxamide]	1.7	6.8
COCc1nc(-c2ccc3c(c2)CC[C@H]3NC(=O)c2cccc([C@@H](C)O)c2)no1 [Compound 729, 3-((R)-1-hydroxyethyl)-N-((R)-5-(5-(methoxymethyl)-1,2,4-oxadiazol-3-yl)-2,3-dihydro-1H-inden-1-yl)benzamide]	2.6	13.2
COCc1nc(-c2ccc3c(c2)CC[C@H]3NC(=O)c2cc(C(F)F)ccn2)no1 [Compound 733, (R)-4-(difluoromethyl)-N-(5-(5-(methoxymethyl)-1,2,4-oxadiazol-3-yl)-2,3-dihydro-1H-inden-1-yl)picolinamide]	1.5	8.9
Cc1nc(-c2ccc3c(c2)OC[C@H]3NC(=O)c2cccc([C@@H](C)O)c2)no1 [Compound 735, 3-((R)-1-hydroxyethyl)-N-((S)-6-(5-methyl-1,2,4-oxadiazol-3-yl)-2,3-dihydrobenzofuran-3-yl)benzamide]	1.6	8.5
COCc1nc(-c2ccc3c(c2)OC[C@H]3NC(=O)c2cccc([C@@H](C)O)c2)no1 [Compound 737, 3-((R)-1-hydroxyethyl)-N-((S)-6-(5-(methoxymethyl)-1,2,4-oxadiazol-3-yl)-2,3-dihydrobenzofuran-3-yl)benzamide]	2.4	14.9
Cc1nc(-c2ccc3c(c2)OC[C@H]3NC(=O)c2ccnc(C(C)O)c2)no1 (stereo partly drawn) [Compound 738, 2-(1-hydroxyethyl)-N-((S)-6-(5-methyl-1,2,4-oxadiazol-3-yl)-2,3-dihydrobenzofuran-3-yl)isonicotinamide]	2.1	9.5
CCc1nc(-c2ccc3c(c2)OC[C@H]3NC(=O)N2CC[C@H](O)C2)no1 [Compound 739, (S)-N-((S)-6-(5-ethyl-1,2,4-oxadiazol-3-yl)-2,3-dihydrobenzofuran-3-yl)-3-hydroxypyrrolidine-1-carboxamide]	5.4	24.2
CCc1nc(-c2ccc3c(c2)OC[C@H]3NC(=O)N2CC[C@@H](O)C2)no1 [Compound 740, (R)-N-((S)-6-(5-ethyl-1,2,4-oxadiazol-3-yl)-2,3-dihydrobenzofuran-3-yl)-3-hydroxypyrrolidine-1-carboxamide]	1.9	6.9
CCc1nc(-c2ccc3c(c2)OC[C@H]3NC(=O)N2CC(O)C2)no1 [Compound 741, (S)-N-(6-(5-ethyl-1,2,4-oxadiazol-3-yl)-2,3-dihydrobenzofuran-3-yl)-3-hydroxyazetidine-1-carboxamide]	1.9	10.5
CCc1nc(-c2ccc3c(c2)OC[C@H]3NC(=O)N2CC[C@H](F)C2)no1 [Compound 742, (S)-N-((S)-6-(5-ethyl-1,2,4-oxadiazol-3-yl)-2,3-dihydrobenzofuran-3-yl)-3-fluoropyrrolidine-1-carboxamide]	3.4	16.6
CCc1nc(-c2ccc3c(c2)OC[C@H]3NC(=O)N2CC[C@@H](F)C2)no1 [Compound 743, (R)-N-((S)-6-(5-ethyl-1,2,4-oxadiazol-3-yl)-2,3-dihydrobenzofuran-3-yl)-3-fluoropyrrolidine-1-carboxamide]	7.4	36.7
CCc1nc(-c2ccc3c(c2)OC[C@H]3NC(=O)OCCO)no1 [Compound 744, 2-hydroxyethyl N-[(3S)-6-(5-ethyl-1,2,4-oxadiazol-3-yl)-2,3-dihydro-1-benzofuran-3-yl]carbamate]	0.3	1.3
CCc1nc(-c2ccc3c(c2)OC[C@H]3NC(=O)N(C)CCO)no1 [Compound 746, (S)-3-(6-(5-ethyl-1,2,4-oxadiazol-3-yl)-2,3-dihydrobenzofuran-3-yl)-1-(2-hydroxyethyl)-1-methylurea]	4.6	21.3

More lines, in order of falling IC50, values ahead:

CDMF75 IC15 [µM]	IC50 [µM]	SMILES
1.2	6	Cc1nc(-c2ccc3c(c2)CC[C@H]3NC(=O)c2cccc([C@@H](C)O)c2)no1 [Compound 726, 3-((R)-1-hydroxyethyl)-N-((R)-5-(5-methyl-1,2,4-oxadiazol-3-yl)-2,3-dihydro-1H-inden-1-yl)benzamide]
1.4	5.9	Cc1noc(-c2ccc3c(c2)CC[C@H]3NC(=O)c2ccnc(C(F)F)c2)n1 [Compound 716, (R)-2-(difluoromethyl)-N-(5-(3-methyl-1,2,4-oxadiazol-5-yl)-2,3-dihydro-1H-inden-1-yl)isonicotinamide]
1.4	5.6	COCc1nc(-c2ccc3c(c2)CC[C@H]3NC(=O)c2cccc(C(C)O)c2)no1 (stereo partly drawn) [Compound 722, 3-(1-hydroxyethyl)-N-((R)-5-(5-(methoxymethyl)-1,2,4-oxadiazol-3-yl)-2,3-dihydro-1H-inden-1-yl)benzamide]
1.2	5.4	COCc1nc(-c2ccc3c(c2)OC[C@H]3NC(=O)c2cccc([C@H](C)O)c2)no1 [Compound 736, 3-((S)-1-hydroxyethyl)-N-((S)-6-(5-(methoxymethyl)-1,2,4-oxadiazol-3-yl)-2,3-dihydrobenzofuran-3-yl)benzamide]
1.1	5.3	COCc1nc(-c2ccc3c(c2)CC[C@H]3NC(=O)c2ccnc(C(F)F)c2)no1 [Compound 731, (R)-2-(difluoromethyl)-N-(5-(5-(methoxymethyl)-1,2,4-oxadiazol-3-yl)-2,3-dihydro-1H-inden-1-yl)isonicotinamide]
1.1	5.2	Cc1nc(-c2ccc3c(c2)OC[C@H]3NC(=O)c2cc(CO)ccn2)no1 [Compound 718, (S)-4-(hydroxymethyl)-N-(6-(5-methyl-1,2,4-oxadiazol-3-yl)-2,3-dihydrobenzofuran-3-yl)picolinamide]
0.8	4.1	Cc1nc(-c2ccc3c(c2)OC[C@H]3NC(=O)c2cccc([C@H](C)O)c2)no1 [Compound 734, 3-((S)-1-hydroxyethyl)-N-((S)-6-(5-methyl-1,2,4-oxadiazol-3-yl)-2,3-dihydrobenzofuran-3-yl)benzamide]
0.8	3.8	COCc1nc(-c2ccc3c(c2)CC[C@H]3NC(=O)c2cccc([C@H](C)O)c2)no1 [Compound 728, 3-((S)-1-hydroxyethyl)-N-((R)-5-(5-(methoxymethyl)-1,2,4-oxadiazol-3-yl)-2,3-dihydro-1H-inden-1-yl)benzamide]
0.8	3.8	CCc1nc(-c2ccc3c(c2)OC[C@H]3NC(=O)NCCO)no1 [Compound 745, (S)-1-(6-(5-ethyl-1,2,4-oxadiazol-3-yl)-2,3-dihydrobenzofuran-3-yl)-3-(2-hydroxyethyl)urea]
0.8	3.7	Cc1nc(-c2ccc3c(c2)OC[C@H]3NC(=O)c2ccnc(CO)c2)no1 [Compound 719, (S)-2-(hydroxymethyl)-N-(6-(5-methyl-1,2,4-oxadiazol-3-yl)-2,3-dihydrobenzofuran-3-yl)isonicotinamide]
0.7	3.4	Cc1nc(-c2ccc3c(c2)CC[C@H]3NC(=O)c2cc(C(F)F)ccn2)no1 [Compound 732, (R)-4-(difluoromethyl)-N-(5-(5-methyl-1,2,4-oxadiazol-3-yl)-2,3-dihydro-1H-inden-1-yl)picolinamide]
0.7	3.2	Cc1nc(-c2ccc3c(c2)CC[C@H]3NC(=O)c2ccnc(C(F)F)c2)no1 [Compound 730, (R)-2-(difluoromethyl)-N-(5-(5-methyl-1,2,4-oxadiazol-3-yl)-2,3-dihydro-1H-inden-1-yl)isonicotinamide]
0.6	2.9	Cc1nc(-c2ccc3c(c2)CC[C@H]3NC(=O)c2cccc([C@H](C)O)c2)no1 [Compound 725, 3-((S)-1-hydroxyethyl)-N-((R)-5-(5-methyl-1,2,4-oxadiazol-3-yl)-2,3-dihydro-1H-inden-1-yl)benzamide]
0.4	1.8	Cc1nc(-c2ccc3c(c2)OC[C@H]3NC(=O)c2cccc(CO)c2)no1 [Compound 717, (S)-3-(hydroxymethyl)-N-(6-(5-methyl-1,2,4-oxadiazol-3-yl)-2,3-dihydrobenzofuran-3-yl)benzamide]
